Data reported in US20060148858A1, “1, 2-Azole derivatives with hypoglycemic and hypolipidemic activity” (priority 2002, published 2006).
Like-named read-outs stand apart in the source and are kept apart here.

What was measured:
[1] = tested on: KKAY mice; test: Plasma anti-arteriosclerosis index-enhancing action in mice (Test Example 2); type: in vivo; details: Mus musculus, po, 96 h, 0.005% in powdery diet, four days, percent increase of (HDL cholesterol/total cholesterol)x100, non-treatment group taken as 100%
Method: Test compounds were mixed in a powdery diet (CE-2, Japan Clea) at the concentration of 0.005%, and freely given to KKAY mice (9 to 12 weeks old, 5 mice per group), a model of obese and non-insulin dependent diabetes (type 2 diabetes), for four days. During this period, water was given freely. Blood was sampled from orbital venous plexus and components in plasma separated from blood were determined. Total cholesterol levels were determined by using L type Wako Cholesterol (Wako Pure Chemical Industries, Ltd.). Precipitation reagent for HDL cholesterol (Wako Pure Chemical Industries, Ltd.) was added to a part of the plasma to precipitate non-HDL lipoprotein, and cholesterol (HDL cholesterol) in the resulting supernatant was determined. The plasma anti-arteriosclerosis index [(HDL cholesterol/total cholesterol)×100] was calculated by using these cholesterol levels.
In the Table, “Plasma anti-arteriosclerosis index-enhancing action (%)” represents the percent increase (%) of plasma anti-arteriosclerosis index in the treatment group, when the plasma anti-arteriosclerosis index in the non-treatment group is taken as 100%.

[2] = target: T1, PPARδ-RXRα heterodimer (Homo sapiens, UniProt Q03181); test: PPARδ-RXRα heterodimer ligand activity, luciferase reporter in COS-1 transformant (Test Example 4); type: cell-based; details: COS-1 transformant (hPPARδ, hRXRα, reporter), 36-48 hours, concentration for 50% of the maximum fold induction
T1 construct: expressed in transfected cells; host or cells: COS-1
T1 sequence (Q03181 1-441): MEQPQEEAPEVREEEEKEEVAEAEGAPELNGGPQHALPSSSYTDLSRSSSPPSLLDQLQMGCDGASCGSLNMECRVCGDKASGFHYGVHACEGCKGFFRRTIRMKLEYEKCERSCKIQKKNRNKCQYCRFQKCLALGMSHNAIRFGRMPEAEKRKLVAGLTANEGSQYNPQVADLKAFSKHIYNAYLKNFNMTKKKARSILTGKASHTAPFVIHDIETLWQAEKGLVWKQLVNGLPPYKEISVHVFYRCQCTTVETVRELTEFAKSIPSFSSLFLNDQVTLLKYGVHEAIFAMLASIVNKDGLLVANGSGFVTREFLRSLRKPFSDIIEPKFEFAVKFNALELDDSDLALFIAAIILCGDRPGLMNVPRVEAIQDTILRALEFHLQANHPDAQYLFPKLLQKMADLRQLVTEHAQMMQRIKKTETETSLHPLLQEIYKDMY
T1 sequence (P19793 1-462 partner): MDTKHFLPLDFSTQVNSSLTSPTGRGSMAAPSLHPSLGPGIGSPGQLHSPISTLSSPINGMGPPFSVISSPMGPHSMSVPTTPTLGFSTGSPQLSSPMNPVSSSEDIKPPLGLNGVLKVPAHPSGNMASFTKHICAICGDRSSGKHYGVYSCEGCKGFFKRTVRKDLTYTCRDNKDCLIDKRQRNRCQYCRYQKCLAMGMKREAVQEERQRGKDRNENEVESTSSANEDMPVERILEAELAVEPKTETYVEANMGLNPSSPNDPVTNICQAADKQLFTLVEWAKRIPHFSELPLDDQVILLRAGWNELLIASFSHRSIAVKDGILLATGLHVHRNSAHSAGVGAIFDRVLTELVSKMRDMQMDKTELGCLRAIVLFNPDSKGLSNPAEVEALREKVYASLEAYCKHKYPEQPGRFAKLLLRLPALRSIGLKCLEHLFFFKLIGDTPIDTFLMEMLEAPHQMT
Outline: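 COS-1 cells transiently co-transfected with human PPARδ, human RXRα, PPRE-luciferase reporter and pRL-tk, then exposed to compound 36-48 h at 37 °C in DMEM with 0.1% fatty acid-free BSA. Luciferase read as fold induction over untreated; EC50 at 50% of maximal fold induction.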

[3] = tested on: KKAY mice; test: Hypoglycemic and hypolipidemic actions in mice (Test Example 1); type: in vivo; details: Mus musculus, po, 96 h, 0.005% in powdery diet, four days, non-treated group taken as 100%
Method: Test compounds were mixed in a powdery diet (CE-2, Japan Clea) at the concentration of 0.005%, and freely given to KKAY mice (9 to 12 weeks old, 5 mice in a group), a model of obese and non-insulin dependent diabetes (type 2 diabetes), for four days. During this period, water was given freely. Blood was sampled from orbital venous plexus, and glucose and triglyceride levels in plasma separated from blood were determined enzymatically using L type Wako Glu2 (Wako Pure Chemical Industries, Ltd.) or L type Wako TG·H (Wako Pure Chemical Industries, Ltd.), respectively.
In the table, “hypoglycemic action (%)” means the rate of decrease (%) in the blood glucose level of the treated group when the blood glucose level of the non-treated group is taken as 100%. In addition, the “hypolipidemic action (%)” means the rate of decrease (%) in the blood triglyceride level of the treated group when the blood triglyceride level of the non-treated group is taken as 100%.

[4] = rate of decrease in blood glucose level, read-out: Hypoglycemic action (%)
[5] = rate of decrease in blood triglyceride level, read-out: Hypolipidemic action (%)

EC50 [2]	melting point	Structure (SMILES)	change in vivo at 0.005 % in diet [1]	inhibition in vivo at 0.005 % in diet [3, 4]	inhibition in vivo at 0.005 % in diet [3, 5]
8.6 nM	82 to 83 °C	CC(C)c1nn(-c2ccc(C(F)(F)F)cn2)cc1CCCOc1cccc(CC(=O)O)c1 [Example 22, [3-(3-{3-isopropyl-1-[5-(trifluoromethyl)-2-pyridyl]-1H-pyrazol-4-yl}propoxy)phenyl]acetic acid]	12%		
8.1 nM	106 to 107 °C	Cc1nn(-c2ccc(C(F)(F)F)cn2)cc1COc1ccc(OC(C)(C)C(=O)O)cc1 [Example 34, 2-methyl-2-(4-{3-methyl-1-[5-(trifluoromethyl)-2-pyridyl]-1H-pyrazol-4-ylmethoxy}phenoxy)propionic acid]	20%	49%	77%
1.6 nM	96 to 97 °C	CCOc1cc(OCCCc2cn(-c3ccc(C(F)(F)F)cn3)nc2OCC)ccc1CCC(=O)O [Example 35, 3-[2-ethoxy-4-(3-{3-ethoxy-1-[5-(trifluoromethyl)-2-pyridyl]-1H-pyrazol-4-yl}propoxy)phenyl]propionic acid]	14%	30%	32%
	114 to 115 °C	COc1cccc(CC(=O)O)c1OCCCc1cn(-c2ccc(C(F)(F)F)cc2)nc1C(C)C [Example 185, [2-(3-{3-isopropyl-1-[4-(trifluoromethyl)phenyl]-1H-pyrazol-4-yl}propoxy)-3-methoxyphenyl]acetic acid]	15%	47%	43%
	106 to 107 °C	CCC(CC)c1nn(-c2ccc(Cl)cn2)cc1CCCOc1c(C)cccc1CC(=O)O [Example 224, (2-{3-[1-(5-chloro-2-pyridyl)-3-(1-ethylpropyl)-1H-pyrazol-4-yl]propoxy}-3-methylphenyl)acetic acid]	14%	48%	60%
	92 to 93 °C	CCOc1cccc(CC(=O)O)c1OCCCc1cn(-c2ccc(Cl)cn2)nc1C(CC)CC [Example 225, (2-{3-[1-(5-chloro-2-pyridyl)-3-(1-ethylpropyl)-1H-pyrazol-4-yl]propoxy}-3-ethoxyphenyl)acetic acid]	12%	31%	35%
	114 to 115 °C	CCc1cccc(CC(=O)O)c1OCCCc1cn(-c2ccc(Cl)cn2)nc1C(CC)CC [Example 253, (2-{3-[1-(5-chloro-2-pyridinyl)-3-(1-ethylpropyl)-1H-pyrazol-4-yl]propoxy}-3-ethylphenyl)acetic acid]	16%	49%	35%
	133 to 134 °C	CCCc1nn(-c2ccc(C(F)(F)F)cn2)cc1CCCOc1c(CC(=O)O)cccc1OCC [Example 260, [3-ethoxy-2-(3-{3-propyl-1-[5-(trifluoromethyl)-2-pyridyl]-1H-pyrazol-4-yl}propoxy)phenyl]acetic acid]	22%	42%	44%
	122 to 123 °C	CC(C)c1nn(-c2ccc(C(F)(F)F)cn2)cc1CCCOc1nn(C)cc1CC(=O)O [Example 299, [3-(3-{3-isopropyl-1-[5-(trifluoromethyl)-2-pyridinyl]-1H-pyrazol-4-yl}propoxy)-1-methyl-1H-pyrazol-4-yl]acetic acid]	11%		
	141 to 142 °C	CCOc1cccc(CC(=O)O)c1OCCCc1cn(-c2ccc(C(F)(F)F)cn2)nc1C(C)C [Example 300, [3-ethoxy-2-(3-{3-isopropyl-1-[5-(trifluoromethyl)-2-pyridinyl]-1H-pyrazol-4-yl}propoxy)phenyl]acetic acid]	12%	36%	39%
	105 to 106 °C	CCCc1nn(-c2ccc(C(F)(F)F)cn2)cc1CCCOc1nn(CC)cc1CC(=O)O [Example 305, [1-ethyl-3-(3-{3-propyl-1-[5-(trifluoromethyl)-2-pyridinyl]-1H-pyrazol-4-yl}propoxy)-1H-pyrazol-4-yl]acetic acid]	22%	50%	55%
	99 to 100 °C	CCn1cc(CC(=O)O)c(OCCCc2cn(-c3ccc(C(F)(F)F)cn3)nc2C(C)C)n1 [Example 313, [1-ethyl-3-(3-{3-isopropyl-1-[5-(trifluoromethyl)-2-pyridinyl]-1H-pyrazol-4-yl}propoxy)-1H-pyrazol-4-yl]acetic acid]	15%	51%	48%
	146 to 148 °C	CC(C)c1nn(-c2ccc(C(F)(F)F)cn2)cc1CCCOc1c(CC(=O)O)cnn1C [Example 318, [5-(3-{3-isopropyl-1-[5-(trifluoromethyl)-2-pyridinyl]-1H-pyrazol-4-yl}propoxy)-1-methyl-1H-pyrazol-4-yl]acetic acid]	22%		
	120 to 121 °C	CCn1ncc(CC(=O)O)c1OCCCc1cn(-c2ccc(C(F)(F)F)cn2)nc1C(C)C [Example 322, [1-ethyl-5-(3-{3-isopropyl-1-[5-(trifluoromethyl)-2-pyridinyl]-1H-pyrazol-4-yl}propoxy)-1H-pyrazol-4-yl]acetic acid]	14%		
	108 to 109 °C	CCOc1nn(-c2ccc(C(F)(F)F)cn2)cc1CCCOc1nn(CC)cc1CC(=O)O [Example 335, [3-(3-{3-ethoxy-1-[5-(trifluoromethyl)-2-pyridinyl]-1H-pyrazol-4-yl}propoxy)-1-ethyl-1H-pyrazol-4-yl]acetic acid]	12%		
		COc1cccc(CC(=O)O)c1OCCCc1cn(-c2ccc(C#N)nn2)nc1C(C)C [Example 337, (2-{3-[1-(6-cyanopyridazin-3-yl)-3-isopropyl-1H-pyrazol-4-yl]propoxy}-3-methoxyphenyl)acetic acid]	24%	44%	48%
	81 to 82 °C	CCC(CC)c1nn(-c2ccc(C(F)(F)F)nn2)cc1CCCOc1c(CC(=O)O)cccc1OC [Example 339, [2-(3-{3-(1-ethylpropyl)-1-[6-(trifluoromethyl)pyridazin-3-yl]-1H-pyrazol-4-yl}propoxy)-3-methoxyphenyl]acetic acid]	22%	50%	54%
